{"source": "patent US20100183561A1", "about": "“Biological therapeutic compositions and methods thereof” (ARTERIOCYTE MEDICAL SYSTEMS, priority 2008, published 2010)", "key": {"[1]": {"assay": "Thrombin activation of antibiotic-enriched bovine PRP, visual observation", "format": "physicochemical", "settings": "for Observation of PRP/Platelet Gel: gelling / Observation of PRP/Platelet Gel: precipitation or aggregation: antibiotic ~75 ug/ml final in bovine PRP, 10% CaCl2 solution, ambient conditions; for Effect on activation of PRP and gel formation / properties of PRP: smaller quantities (sufficient for local application) dissolved in CaCl2 solution, bovine PRP", "excerpt": "Study Design: This example evaluated the appearance and characteristics of antibiotics-enriched bovine PRP. There were two variables in this study: 1) choice of antibiotics, and 2) presence/absence of thrombin. Two antibiotics were used to couple PRP in this study: 1) Vancomycin and 2) Cefazolin. Thrombin, a common reagent for activation of fibrinogen in PRP (for use as a gel would sealant), was used to activate platelet gel-antibiotics/PRP mixture formation, and compared to a mixture not activated by thrombin.\nPreparation of Bovine PRP: 60 ml of Bovine blood (anti-coagulant added) was processed with the Magellan® system to obtain 6 ml of bovine PRP. Bovince PRP was stored in a refrigerator.\nDissolution of Antibiotics in CaCl2 solution: Initial target dose of antibiotics was based on body weight and was estimated at 1.5 mg/kg body weight per unit of PRP, or 105 mg for a 70 kg adult. 3 ml PRP was prepared from 60 ml Bovine Blood with the Magellan® System, resulting in a 2× standard concentration. 105 mg was dissolved into 3 mL of saline solution. 1 ml each of PRP Vancomycin/saline solution were combined to yield a product approximating standard PRP, containing desired amount of Vancomycin.\nVancomycin: To achieve the revised target dose of 75 ug/ml, 5 mg antibiotic was added per 6 ml 10% w/v CaCl2 solution used to reconstitute thrombin for activation of 6 ml PRP.\n5 mg Vancomycin hydrochloride (Acros Organics) was dissolved into 6 ml 10% w/v CaCl2 solution at ambient conditions for a concentration of 833 ug/ml. Agitation was necessary to properly dissolve Vancomycin due to its large grain sizes.\nCefazolin: 5 mg Cefazolin hydrochloride (Alexis) was dissolved into 6 ml 10% w/v CaCl2 solution at ambient conditions for a concentration of 833 ug/ml. Slight agitation was necessary to dissolve Cefazolin.\n1 kU of bovine thrombin was dissolved into 1 ml of Antibiotic/10% w/v CaCl2 solution or Vancomycin/10% w/v CaCl2 solution.\nPreparation of Cefazolin- or Vancomycin-Coupled PRP: 0.6 ml of the bovine thrombin/Vancomycin/10% w/v CaCl2 solution was added to 6 ml of bovine PRP to obtain 6.6 ml of Vancomycin coupled PRP gel to produce an activated gel with a final concentration of ˜75 ug/ml.\nFor controls, 0.6 ml of the Vancomycin/10% w/v CaCl2 solution (without thrombin) was added to 6 ml of bovine PRP to obtain 6.6 ml of Vancomycin coupled PRP gel to produce an activated gel with a final concentration of ˜75 ug/ml.\nEvaluation of Cefazolin- or Vancomycin-Coupled PRP: After mixing, the antibiotic-enriched PRP with and without thrombin were left on bench top. Visual observation was used to evaluate the appearance and characteristics of the mixture material. This process was conducted under ambient conditions."}, "[2]": {"assay": "Thrombin activation of antibiotic-enriched bovine PRP, visual observation", "format": "physicochemical", "settings": "initial dose 1.05 g per unit PRP, 1 ml of 2× concentration bovine PRP + Vancomycin solution, no thrombin, Hydrochloride"}}, "note": "Where a name gives a salt, the structure may show the parent alone."}
{"smiles": "Cc1nnc(SCC2=C(C(=O)[O-])N3C(=O)[C@@H](NC(=O)Cn4cnnn4)[C@H]3SC2)s1.[Na+]", "note": "[Cefazolin, Cefazolin Sodium Salt]", "values": [{"measurement": "Observation of PRP/Platelet Gel: gelling", "setting": "[1]; Thrombin: Yes", "result": "Mixture gels immediately within minutes,"}, {"measurement": "Observation of PRP/Platelet Gel: precipitation or aggregation", "setting": "[1]; Thrombin: Yes", "result": "no precipitation or aggregation observed."}, {"measurement": "Effect on activation of PRP and gel formation / properties of PRP", "setting": "[1]", "result": "did not appear to alter the properties PRP"}]}
{"smiles": "CN[C@H](CC(C)C)C(=O)N[C@H]1C(=O)N[C@@H](CC(N)=O)C(=O)N[C@H]2C(=O)N[C@H]3C(=O)N[C@H](C(=O)N[C@H](C(=O)O)c4cc(O)cc(O)c4-c4cc3ccc4O)[C@H](O)c3ccc(c(Cl)c3)Oc3cc2cc(c3O[C@@H]2O[C@H](CO)[C@@H](O)[C@H](O)[C@H]2O[C@H]2C[C@](C)(N)[C@H](O)[C@H](C)O2)Oc2ccc(cc2Cl)[C@H]1O", "note": "[Vancomycin, Vancomycin Hydrochloride]", "values": [{"measurement": "Observation of PRP/Platelet Gel: precipitation or aggregation", "setting": "[1]; Thrombin: No", "result": "white solid precipitates forming upon"}, {"measurement": "Observation of PRP/Platelet Gel: gelling", "setting": "[1]; Thrombin: Yes", "result": "Mixture gels immediately within minutes;"}, {"measurement": "Effect on activation of PRP and gel formation / properties of PRP", "setting": "[1]", "result": "did not interfere with or premarturely initiate activation of PRP and gel formation"}, {"measurement": "Appearance of PRP combined with antibiotic solution at initial (systemic-order) dose", "setting": "[2]", "result": "Immediate aggregation of PRP into a solid"}, {"measurement": "Appearance of PRP combined with antibiotic solution at initial (systemic-order) dose", "setting": "[2]; listed as vancomycin", "result": "rapid formation of heterogenous solids"}]}
